# Data reported in patent US4400510A, “A-32256 Phenazine antibiotic” (Eli Lilly and Company, priority 1981, dated 1983).
# Structures can show the parent of a compound that is named as a salt. Where two headings read alike, the source gives them in different places.
# Columns and labels:
# Fusobacterium symbiosum = test: agar-dilution MIC vs. anaerobic bacteria; assay type: cell-based; conditions: strain 1470; Table 6; disodium salt, monohydrate
# [1] = tested on: Streptococcus sp. (Group D); test: disc-plate screening procedure, zone of inhibition; conditions: read-out: Zone Diameter
# [2] = tested on: Bacteroides melanogenicus; test: agar-dilution MIC vs. anaerobic bacteria; assay type: cell-based; conditions: Table 6, disodium salt, monohydrate
# Clostridium perfringens = test: microbe, parasite or virus in culture; assay type: cell-based; conditions: strain 81; Table 6; disodium salt, monohydrate
# Propionibacterium acnes = test: agar-dilution MIC vs. anaerobic bacteria; assay type: cell-based; conditions: strain 79; Table 6; disodium salt, monohydrate
# [3] = tested on: Peptostreptococcus intermedius; test: agar-dilution MIC vs. Peptococcus and Peptostreptococcus species; assay type: cell-based; conditions: Table 9, disodium salt, monohydrate
# Protocol: (§1) The agar-dilution procedure described by the International Collaborative Study (ICS) group was used to determine MIC values.
# (§2) The MIC values were determined by the agar-dilution method, and are recorded in Table 9, which follows.
# [4] = tested on: Peptostreptococcus anaerobius; test: as above; assay type: cell-based; conditions: Table 9, disodium salt, monohydrate
# Protocol: as §1, §2
# Peptococcus magnus = test: as above; assay type: cell-based; conditions: Table 9, disodium salt, monohydrate
# Protocol: as §1, §2
# Peptococcus constellatus = test: as above; assay type: cell-based; conditions: Pc. constellatus 1468; Table 9; disodium salt, monohydrate
# Protocol: as §1, §2
# [5] = tested on: Peptococcus asaccharolyticus; test: as above; assay type: cell-based; conditions: Table 9, disodium salt, monohydrate
# Protocol: as §1, §2
# Peptococcus prevoti = test: as above; assay type: cell-based; conditions: Table 9, disodium salt, monohydrate
# Protocol: as §1, §2
# Staphylococcus aureus = test: disc-plate screening procedure, zone of inhibition
# Actinomyces israellii = test: agar-dilution MIC vs. anaerobic bacteria; assay type: cell-based; conditions: strain W855; Table 6; disodium salt, monohydrate
# Protocol: as §1
# The MIC was determined by the agar-dilution method.
# [6] = tested on: Fusobacterium necrophorum; test: agar-dilution MIC vs. anaerobic bacteria; assay type: cell-based; conditions: strain 6054A; Table 6; disodium salt, monohydrate
# Eubacterium aerofaciens = test: agar-dilution MIC vs. anaerobic bacteria; assay type: cell-based; conditions: strain 1235; Table 6; disodium salt, monohydrate
# Bacteroides vulgatis = test: agar-dilution MIC vs. anaerobic bacteria; assay type: cell-based; conditions: strain 1211; Table 6; disodium salt, monohydrate
# Streptococcus pneumoniae = test: disc-plate screening procedure, zone of inhibition; conditions: read-out: Zone Diameter
# hygroscopicity = assay type: physicochemical; conditions: monohydrate, brown powder
# B. thetaiotaomicron = test: agar-dilution MIC vs. Bacteroides species; assay type: cell-based; conditions: 24 hours, Table 8, disodium salt, monohydrate
# Protocol: as §1
# (§3) The MIC values were determined by the agar-dilution method, the endpoints being read 24 hours after incubation, and are recorded in Table 8, which follows.
# B. corrodens = test: agar-dilution MIC vs. Bacteroides species; assay type: cell-based; conditions: B. corrodens 1874; 24 hours; Table 8; disodium salt, monohydrate
# Protocol: as §1, §3
# B. vulgatis = test: agar-dilution MIC vs. Bacteroides species; assay type: cell-based; conditions: B. vulgatis 1563; 24 hours; Table 8; disodium salt, monohydrate
# Protocol: as §1, §3
# Bacteroides fragilis [7] = test: agar-dilution MIC vs. Bacteroides species; assay type: cell-based; conditions: 24 hours, Table 8, disodium salt, monohydrate
# Protocol: as §1, §3
# Trichomonas vaginalis = test: broth dilution assay, antitrichomonal activity; assay type: cell-based; conditions: Trichomonas vaginalis; broth dilution assay; read-out: Minimal Inhibitory Concentration
# Bacteroides fragilis [8] = test: agar-dilution MIC vs. anaerobic bacteria; assay type: cell-based; conditions: Table 6, disodium salt, monohydrate
# [9] = tested on: Peptococcus asaccharolyticus; test: agar-dilution MIC vs. anaerobic bacteria; assay type: cell-based; conditions: strain 1302; Table 6; disodium salt, monohydrate
# Streptococcus pyogenes = test: disc-plate screening procedure, zone of inhibition; conditions: read-out: Zone Diameter
smiles,measurement,setting,value
"Cc1cccc(O)c1C(=O)OC(C)c1cccc2nc3c(C(=O)O)cccc3nc12 (stereo not shown) [A-32256 disodium salt, 6-[1-[(2-hydroxy-6-methylbenzoyl)oxy]ethyl]-1-phenazinecarboxylic acid, disodium salt, monohydrate]",MIC,Fusobacterium symbiosum,≤ 0.5 µg/mL
same,zone of inhibition at 10 µg/disc,[1],15.6 mm
same,zone of inhibition at 100 µg/disc,[1],20.4 mm
same,MIC,[2]; strain 1856/28,32 µg/mL
same,MIC,[2]; strain 2736,≤ 0.5 µg/mL
same,MIC,Clostridium perfringens,1.0 µg/mL
same,MIC,Propionibacterium acnes,≤ 0.5 µg/mL
same,MIC,[3]; Ps. intermedius 1264,≤ 0.06 µg/mL
same,MIC,[3]; Ps. intermedius 1624,≤ 0.06 µg/mL
same,MIC,[4]; Ps. anaerobius 8,0.25 µg/mL
same,MIC,[4]; Ps. anaerobius 52,0.5 µg/mL
same,MIC,[4]; Ps. anaerobius 59,≤ 0.06 µg/mL
same,MIC,[4]; Ps. anaerobius 1418,≤ 0.06 µg/mL
same,MIC,[4]; Ps. anaerobius 1428,0.25 µg/mL
same,MIC,[4]; Ps. anaerobius 1451,≤ 0.06 µg/mL
same,MIC,[4]; Ps. anaerobius 1477,0.125 µg/mL
same,MIC,Peptococcus magnus; Pc. magnus 1401,0.125 µg/mL
same,MIC,Peptococcus magnus; Pc. magnus 1421,0.125 µg/mL
same,MIC,Peptococcus magnus; Pc. magnus 1477,0.125 µg/mL
same,MIC,Peptococcus constellatus,0.5 µg/mL
same,MIC,[5]; Pc. asaccharolyticus 1302,≤ 0.06 µg/mL
same,MIC,[5]; Pc. asaccharolyticus 1344,≤ 0.06 µg/mL
same,MIC,Peptococcus prevoti; Pc. prevoti 1281,0.125 µg/mL
same,MIC,Peptococcus prevoti; Pc. prevoti 1293,0.125 µg/mL
same,MIC,Peptococcus prevoti; Pc. prevoti 1407,0.5 µg/mL
same,zone of inhibition at 10 µg/disc,"Staphylococcus aureus; read-out: Zone Diameter, S. aureus 3055, benzylpenicillin-susceptible, 10 mcg/disc",17.8 mm
same,zone of inhibition at 100 µg/disc,"Staphylococcus aureus; read-out: Zone Diameter, S. aureus 3055, benzylpenicillin-susceptible, 100 mcg/disc",25.2 mm
same,zone of inhibition at 10 µg/disc,"Staphylococcus aureus; read-out: Zone Diameter, S. aureus 3074, benzylpenicillin-resistant, 10 mcg/disc",16.2 mm
same,zone of inhibition at 100 µg/disc,"Staphylococcus aureus; read-out: Zone Diameter, S. aureus 3074, benzylpenicillin-resistant, 100 mcg/disc",23.3 mm
same,zone of inhibition at 10 µg/disc,"Staphylococcus aureus; read-out: Zone Diameter, S. aureus 3130, methicillin-resistant, 10 mcg/disc",19.8 mm
same,zone of inhibition at 100 µg/disc,"Staphylococcus aureus; read-out: Zone Diameter, S. aureus 3130, methicillin-resistant, 100 mcg/disc",26.8 mm
same,MIC,Actinomyces israellii,≤ 0.5 µg/mL
same,MIC,[6],1.0 µg/mL
same,MIC,Eubacterium aerofaciens,≤ 0.5 µg/mL
same,MIC,Bacteroides vulgatis,≤ 0.5 µg/mL
same,zone of inhibition at 10 µg/disc,Streptococcus pneumoniae,25 mm
same,zone of inhibition at 100 µg/disc,Streptococcus pneumoniae,31 mm
same,hygroscopicity,hygroscopicity,hygroscopic
same,MIC,B. thetaiotaomicron; B. thetaiotaomicron 1438,0.03 µg/mL
same,MIC,B. thetaiotaomicron; B. thetaiotaomicron 1900A,0.03 µg/mL
same,MIC,B. corrodens,≤ 0.015 µg/mL
same,MIC,B. vulgatis,0.03 µg/mL
same,MIC,Bacteroides fragilis [7]; B. fragilis 2,≤ 0.015 µg/mL
same,MIC,Bacteroides fragilis [7]; B. fragilis 9,≤ 0.015 µg/mL
same,MIC,Bacteroides fragilis [7]; B. fragilis 62,≤ 0.015 µg/mL
same,MIC,Bacteroides fragilis [7]; B. fragilis 103,≤ 0.015 µg/mL
same,MIC,Bacteroides fragilis [7]; B. fragilis 104,≤ 0.015 µg/mL
same,MIC,Bacteroides fragilis [7]; B. fragilis 106,≤ 0.015 µg/mL
same,MIC,Bacteroides fragilis [7]; B. fragilis 107,0.03 µg/mL
same,MIC,Bacteroides fragilis [7]; B. fragilis 108,≤ 0.015 µg/mL
same,MIC,Bacteroides fragilis [7]; B. fragilis 110,≤ 0.015 µg/mL
same,MIC,Bacteroides fragilis [7]; B. fragilis 111,0.03 µg/mL
same,MIC,Bacteroides fragilis [7]; B. fragilis 112,≤ 0.015 µg/mL
same,MIC,Bacteroides fragilis [7]; B. fragilis 113,≤ 0.015 µg/mL
same,MIC,Bacteroides fragilis [7]; B. fragilis 1470,≤ 0.015 µg/mL
same,MIC,Bacteroides fragilis [7]; B. fragilis 1877,≤ 0.015 µg/mL
same,MIC,Bacteroides fragilis [7]; V. fragilis 1451 (so in the source),0.03 µg/mL
same,MIC,Trichomonas vaginalis,< 0.975 µg/mL
same,MIC,Bacteroides fragilis [8]; strain 111,≤ 0.5 µg/mL
same,MIC,Bacteroides fragilis [8]; strain 1877,≤ 0.5 µg/mL
same,MIC,Bacteroides fragilis [8]; strain 1936B,≤ 0.5 µg/mL
same,MIC,[9],≤ 0.5 µg/mL
same,zone of inhibition at 10 µg/disc,Streptococcus pyogenes,17 mm
same,zone of inhibition at 100 µg/disc,Streptococcus pyogenes,21 mm
